Laboratory results taken from publication PMC10734772 (Turkish Journal of Chemistry, 2021).

SMILES	melting point
Cc1ccc(NC(=O)c2ccc(CN3CCN(c4ncccn4)CC3)cc2)cc1Nc1cnccn1 [Compound 7, N-(4-Methyl-3-(pyrazin-2-ylamino)phenyl)-4-((4-(pyrimidin-2-yl)piperazin-1-yl)methyl)benzamide]	143 °C
Cc1ccnc(Nc2cc(NC(=O)c3ccc(CN4CCN(c5ncccn5)CC4)cc3)ccc2C)n1 [Compound 5, N-(4-Methyl-3-((4-methylpyrimidin-2-yl)amino)phenyl)-4-((4-(pyrimidin-2-yl)piperazin-1-yl)methyl)benzamide]	89 °C

Now from value to compound:

melting point	SMILES
155 to 157 °C	Cc1ccnc(Nc2cc(NC(=O)c3ccc(CN4CCOCC4)cc3)ccc2C)c1 [Compound 9, N-(4-Methyl-3-((4-methylpyridin-2-yl)amino)phenyl)-4-(morhpolinomethyl)benzamide]
157 °C	Cc1ccnc(Nc2cc(NC(=O)c3ccc(CN4CCOCC4)cc3)ccc2C)n1 [Compound 8, N-(4-Methyl-3-((4-methylpyrimidin-2-yl)amino)phenyl)-4-(morhpolinomethyl)benzamide]
87 °C	COc1ccc(CN2CCN(Cc3ccc(C(=O)Nc4ccc(C)c(Nc5cc(C)ccn5)c4)cc3)CC2)c(OC)c1OC [Compound 10, N-(4-Methyl-3-((4-methylpyridin-2-yl)amino)phenyl)-4-((4-(2,3,4-trimethoxybenzyl)piperazin-1-yl)methyl)benzamide]
